{
  "source": "paper PMC8536644",
  "about": "“Enigmatic mechanism of the N-vinylpyrrolidone hepatocarcinogenicity in the rat” (Archives of Toxicology, 2021)",
  "key": {"rat lung cells": {"tested_on": "rat lung cells", "test": "Trypan Blue viability of the single cell suspension, lung", "type": "in vivo", "conditions": "lung, 5 days, individual animals", "experimental": "The organ parts (see above) were washed in mincing buffer (50 mM EDTA in HBSS [without Ca^2+ and Mg^2+] pH 7.5: DMSO 9:1 (v/v), the latter added shortly before use, stored at 4 °C), cut into 1 to 2-mm pieces in ice-cold mincing buffer and transferred to a cell sieve with 70-µm pores. The viability of the cell suspension was evaluated by the Trypan Blue Assay (Strober [2001])."}, "CYP4A": {"tested_on": "CYP4A", "test": "Lauric acid hydroxylase assay, 12-hydroxylation (PPARα marker)", "type": "in vivo, rat", "procedure": "^14C-labelled lauric acid (55 mCi/mmol) dissolved in ethanol (0.1 mCi/mL; total volume 2.5 mL) was purchased from American Radiolabeled Chemicals. 10 µL of this solution were diluted with methanol to 2 mL. The purity was checked by radio-HPLC. For the enzyme activity determinations 1.21 mL of this solution were treated in the thermomixer at 40 °C and 300 rpm until the ethanol was completely evaporated. The residue was taken up in 550 µL DMSO and checked on the incubation days by radio-HPLC and by liquid scintillation counting (LSC). To this end the just-mentioned solution in DMSO (nominally 8.14 MBq/mL) was 100-fold diluted with methanol, 50 µL of the resultant solution used for the HPLC analysis, 100 µL for the LSC analysis (488,400 dpm/100 µL).\nFor the determination of the lauric acid hydroxylase activity the liver microsomal fractions (prepared as described in the preceding chapter “Aryl hydrocarbon receptor”) derived from the NVP-treated (and untreated control) male rats were adjusted with TrisHCl pH 7.5–20 mg protein/mL. Obtained samples were measured in duplicates. Controls were heat-denatured samples (15 min at 99 °C in the thermomixer at 450 rpm), zero-time samples (reaction stopped immediately after adding substrate) and buffer controls (TrisHCl pH 7.5, no microsomal protein). 155 µL master mix (100 mM TrisHCl pH 7.5, 10 mM MgCl2, 2 mM 5’AMP-Na2, 5 mM G-6-P, 10 U G-6-P-DH) and 30 µL sample were preincubated for 3 min at 37 °C. Subsequently 10 µL of a 2-mM NADPH solution and 5 µL ^14C-lauric acid (8.14 MBq/mL) were added (lauric acid final concentration in the incubation 100 µM). The reaction was run for 20 min at 37 °C in the thermomixer (450 rpm) and stopped by the addition of 200 µL ice-cold acetone. […]"}, "mice": {"tested_on": "mice", "design": "method as in BASF [1993]", "conditions": "oral application, ref BASF [1993]; cited from earlier work"}, "rat liver": {"tested_on": "rat liver", "test": "Non-protein-bound sulfhydryl groups (NPSH) in liver homogenate supernatant", "type": "in vivo", "conditions": "for NPSH, individual animal / NPSH, group (mean ± SD): rat liver; for NPSH, group (mean ± SD): n = 6", "procedure": "Determination of NPSH was performed according to the principle described by Ellmann (1958, 1959) in the liver homogenate supernatant fraction of the NVP-exposed male Wistar rats. […] The supernatant fraction was stored in aliqots at − 80 °C. Prior to assay, the samples were diluted fourfold and to 100 µL of the diluted sample 200 µL Tris/EDTA (1 M/5 mM, pH 8.9) buffer was added. Determinations were performed in triplicates. […] Measurements were performed 5 min thereafter at λ = 412 nm."}, "rat hepatocytes": {"tested_on": "rat hepatocytes", "test": "MTT assay in cultivated rat hepatocytes", "type": "cell-based", "conditions": "up to 1000 µM"}, "estrogen receptor α": {"tested_on": "estrogen receptor α", "design": "method as in ToxCast (comptox.epa.gov dashboard)", "conditions": "ref ToxCast (comptox.epa.gov dashboard); cited from earlier work"}, "CYP1A": {"tested_on": "CYP1A", "test": "EROD assay, liver microsomes of NVP-treated rats (AhR marker)", "type": "in vivo, rat", "conditions": "male rats", "procedure": "(§1) The alkoxyresorufin dealkylase (AROD) assays were based on the method by Burke et al. ([1994]).\n(§2) The frozen livers and lungs of the NVP-treated male Wistar rats were thawed and washed with isotonic (0.9%) NaCl solution. The tissues were ice-cooled homogenized (1 g tissue: 3 mL 0.25 M saccharose in 1 mM disodium EDTA, pH 7.4) and centrifuged (9000 g, 15 min, 4 °C). The supernatant fraction was centrifuged (100 000 g, 60 min, 4 °C). The resulting supernatant fraction was used for the palmitoyl-CoA-oxidase assay described further down. The pellet was taken up in 150 mM aqueous KCl solution, recentrifuged (100 000 g, 60 min, 4 °C) and the pellet taken up in 1 mL/g liver or 0.5 mL/g lung resuspension buffer (1 mM GSH, 1 mM disodium EDTA, 4 mM MgCl2, 0.1 M KH2PO4, pH 7.5 and 4% glycerol). Aliquots were stored at − 80 °C.\n(§3) For determination of the enzyme activities in triplicates, 85 µL master mix (100 mM TrisHCl pH 7.5, 2 mM 5’AMP, 5 mM G-6-P, 10 U G-6-P-DH, 10 mM Dicumarol, 10 mM MgCl2, either 2 µM EROD or 10 µM PROD or 5 µM BROD) was added to 10 µL microsomal fraction (1 mg protein/mL). The reaction was started by the addition of 5 µL 2 mM NADPH (dissolved in 100 mM TrisHCl pH 7.5) followed by incubation at 37 °C for 16 min. The activity was determined by measuring the increase of the fluorescence (excitation at 550 nm, emission at 585 nm) due to resorufin formation compared with resorufin standards, which had been prepared by dissolving tenfold concentrated solutions in DMSO, which were then diluted tenfold in 100 mM TrisHCl pH 7.5."}, "CYP 2B/3A [1]": {"tested_on": "CYP 2B/3A", "test": "BROD assay, lung microsomes", "type": "in vivo, rat", "conditions": "male rats", "procedure": "as §1, §2, §3"}, "CYP 2B/3A [2]": {"tested_on": "CYP 2B/3A", "test": "BROD assay, liver microsomes (PXR marker)", "type": "in vivo, rat", "conditions": "male rats", "procedure": "as §1, §2, §3"}, "[3]": {"conditions": "lauric acid 12-hydroxylation, liver microsomes, 20 ppm NVP, individual animals 19-24"}},
  "note": "Values joined by “and” are separate entries in the source; they are usually repeats but may differ in a detail not shown here. Identical values can stand only once.",
  "data": [
    {"smiles": "C=CN1CCCC1=O", "note": "[NVP, N-vinylpyrrolidone]", "values": [
      {"measurement": "Individual viability (%)", "setting": "rat lung cells; female, Comet with FPG (Table 11), 20 ppm inhalation", "value": 95, "unit": "%"},
      {"measurement": "Individual viability (%)", "setting": "rat lung cells; female, no FPG, 20 ppm inhalation", "value": 96, "unit": "%"},
      {"measurement": "Individual viability (%)", "setting": "rat lung cells; male, Comet with FPG (Table 10), 10 ppm inhalation", "value": 93, "unit": "%"},
      {"measurement": "Individual viability (%)", "setting": "rat lung cells; male, no FPG, 10 ppm inhalation", "value": 93, "unit": "%"},
      {"measurement": "Increase of lauric acid 12-hydroxylation vs vehicle control", "setting": "CYP4A; 20 ppm, not statistically significant", "value": 1.3, "unit": "fold"},
      {"measurement": "ω-hydroxylase (CYP4A-activity), enzyme activity individual", "setting": "CYP4A; [3]", "value": "20,495 peak surface/min/mg protein and 20,593 peak surface/min/mg protein and 10,543 peak surface/min/mg protein and 14,545 peak surface/min/mg protein and 15,406 peak surface/min/mg protein and 6779 peak surface/min/mg protein"},
      {"measurement": "ω-hydroxylase (CYP4A-activity), peak surface", "setting": "CYP4A; [3]", "value": "27,314 and 28,341 and 15,814 and 21,818 and 23,109 and 11,088"},
      {"measurement": "Micronucleus test result", "setting": "mice", "value": "negative"},
      {"measurement": "GSH concentration (NPSH assay), range", "setting": "rat liver; NVP-exposed male rats, 5-20 ppm", "value": "3.72–5.23 µmol/g liver"},
      {"measurement": "NPSH, individual animal", "setting": "rat liver; 5 ppm NVP inhalation, animals 7-12", "value": "5,13 µmol/g liver and 4,59 µmol/g liver and 4,10 µmol/g liver and 4,86 µmol/g liver and 3,99 µmol/g liver"},
      {"measurement": "NPSH, group (mean ± SD)", "setting": "rat liver; 5 ppm NVP inhalation", "value": "4.42 ± 0.52", "unit": "µmol/g liver"},
      {"measurement": "NPSH, individual animal", "setting": "rat liver; 10 ppm NVP inhalation, animals 13-18", "value": "4.11 µmol/g liver and 4.72 µmol/g liver and 4.83 µmol/g liver and 4.57 µmol/g liver and 3.76 µmol/g liver"},
      {"measurement": "NPSH, group (mean ± SD)", "setting": "rat liver; 10 ppm NVP inhalation", "value": "4.23 ± 0.58", "unit": "µmol/g liver"},
      {"measurement": "NPSH, individual animal", "setting": "rat liver; 20 ppm NVP inhalation, animals 19-24", "value": "4.47 µmol/g liver and 5.23 µmol/g liver and 3.72 µmol/g liver and 3.88 µmol/g liver and 4.67 µmol/g liver and 4.64 µmol/g liver"},
      {"measurement": "NPSH, group (mean ± SD)", "setting": "rat liver; 20 ppm NVP inhalation", "value": "4.44 ± 0.55", "unit": "µmol/g liver"},
      {"measurement": "Cytotoxicity in MTT assay", "setting": "rat hepatocytes", "value": "no cytotoxicity observed"},
      {"measurement": "Effect on estrogen receptor α", "setting": "estrogen receptor α", "value": "activates"},
      {"measurement": "Liver microsomal EROD activity", "setting": "CYP1A; 5 ppm", "value": "20.5 ± 3.6", "unit": "pmol/min/mg protein"},
      {"measurement": "Liver microsomal EROD activity", "setting": "CYP1A; 10 ppm", "value": "22.0 ± 5.8", "unit": "pmol/min/mg protein"},
      {"measurement": "Liver microsomal EROD activity", "setting": "CYP1A; 20 ppm", "value": "16.9 ± 6.4", "unit": "pmol/min/mg protein"},
      {"measurement": "BROD activity in lung microsomes", "setting": "CYP 2B/3A [1]; 5 ppm", "value": "22.9 ± 11.0", "unit": "pmol/min/mg protein"},
      {"measurement": "BROD activity in lung microsomes", "setting": "CYP 2B/3A [1]; 10 ppm", "value": "25.5 ± 19.8", "unit": "pmol/min/mg protein"},
      {"measurement": "BROD activity in lung microsomes", "setting": "CYP 2B/3A [1]; 20 ppm", "value": "82.1 ± 76.8", "unit": "pmol/min/mg protein"},
      {"measurement": "Liver microsomal BROD activity", "setting": "CYP 2B/3A [2]; 5 ppm", "value": "54.5 ± 11.3", "unit": "pmol/min/mg protein"},
      {"measurement": "Liver microsomal BROD activity", "setting": "CYP 2B/3A [2]; 10 ppm", "value": "61.7 ± 16", "unit": "pmol/min/mg protein"},
      {"measurement": "Liver microsomal BROD activity", "setting": "CYP 2B/3A [2]; 20 ppm", "value": "42.1 ± 16.5", "unit": "pmol/min/mg protein"}
    ]}
  ]
}
